Read-outs that look alike come from different tables or passages of the source.
Legend:
Assay type in all cases: cell-based, human
[1] = test system: foreskin cells in which senescence was induced by doxorubicin; test: CellTiter-Glo cell viability of doxorubicin-induced senescent foreskin cells (Examples 1-2, 10, 11, 13; Tables 4, 63, 65); conditions: Homo sapiens, 72 h, read-out: Survival (%); for viability at 10 µM: 10 μM test compound; for viability at 30 µM: 30 μM test compound; for viability at […]: […] test compound
Procedure: After 3 days, cell viability was measured using CellTiter-Glo Luminescent Cell Viability Assay (Promega) or light microscopy.

HMGN1 [2] = test: HMGN1 ELISA in culture medium of foreskin cells (Examples 10, 11; Tables 62, 63, 64); conditions: Homo sapiens; for activity at 30 µM: read-out: HMGN1
HMGN1 [3] = test: HMGN1 ELISA in culture medium of A549 cancer cells (Example 12, Table 66); conditions: Homo sapiens; for activity at 90 µM: test compound 90 μM
A549 = test: CellTiter-Glo cell viability of senescent A549 cancer cells (Example 12, Table 67); conditions: Homo sapiens; for viability at 10 µM: 10 μM test compound; for viability at 30 µM: 30 μM test compound; for viability at 90 µM: 90 μM test compound
[4] = 1.1 μM test compound, doxorubicin-induced senescent foreskin cells, CellTiter-Glo, 0 μM = 100
[5] = doxorubicin-induced senescent foreskin cells, CellTiter-Glo, 0 μM = 100
[6] = A549, doxorubicin-induced senescent A549 cancer cells, 1.1 μM test compound, CellTiter-Glo, read-out: Survival (%)
[7] = A549, doxorubicin-induced senescent A549 cancer cells, CellTiter-Glo, read-out: Survival (%)
[8] = 30 μM test compound, doxorubicin-treated foreskin cells, DMSO = 100
[9] = A549, doxorubicin-induced senescent A549 cells, ELISA, DMSO = 100, read-out: HMGN1 (amount of HMGN1 secreted in the cell culture)
[10] = A549, doxorubicin-induced senescent A549 cells, test compound 30 μM, ELISA, DMSO = 100, read-out: HMGN1 (amount of HMGN1 secreted in the cell culture)

Row | Structure (SMILES) | viability at 1.1 µM [1, 4] | viability at 10 µM [1, 5] | viability at 30 µM [1, 5] | viability at 90 µM ([1]; 90 μM test compound, doxorubicin-induced senescent foreskin cells, CellTiter-Glo, 0 μM = 100) | viability at 270 µM ([1]; 270 μM test compound, doxorubicin-induced senescent foreskin cells, CellTiter-Glo, 0 μM = 100) | viability at […] [1, 5] | activity at 270 µM (HMGN1 [2]; 270 μM test compound, doxorubicin-treated foreskin cells, DMSO = 100) | activity at 270 µM (HMGN1 [3]; A549, doxorubicin-induced senescent A549 cells, test compound 270 μM, ELISA, DMSO = 100, read-out: HMGN1 (amount of HMGN1 secreted in the cell culture)) | viability at 1.1 µM (A549; [6]) | viability at 10 µM (A549; [7]) | viability at 30 µM (A549; [7]) | viability at 90 µM (A549; [7]) | viability at 270 µM (A549; A549, doxorubicin-induced senescent A549 cancer cells, 270 μM test compound, CellTiter-Glo, read-out: Survival (%)) | activity at 30 µM (HMGN1 [2]; [8]) | activity at 90 µM (HMGN1 [3]; [9]) | activity at 30 µM (HMGN1 [3]; [10]) | viability at 1.1 µM [1] | activity at 30 µM (HMGN1 [2]) | activity at 30 µM (HMGN1 [3]; A549, read-out: HMGN1 (amount of HMGN1 secreted in the cell culture)) | viability at 1.1 µM (A549; A549, read-out: Survival (%))
1 | CC1(C)C=C2[C@H]3CC[C@@H]4[C@@]5(C)CCC(=O)C(C)(C)[C@@H]5CC[C@@]4(C)[C@]3(C)CC[C@@]2(C(=O)O)CC1 [LX-2007, Moronic acid] | 105% | 91.2% | 83.9% | 47.2% | 1.3% | 98.9% | 255% | 192% | 111% | 96.3% | 87.9% | 62.8% | 32.4% | – | – | – | – | – | – | –
2 | CCNC(=O)c1c(O)c(I)c(-n2cccc2)c2sc(N(CC)CC)nc12 [LX-912] | 104% | 32.7% | 3.1% | – | – | 85.2% | – | – | 92.4% | 83.9% | 32.4% | 6.7% | – | 317% | 244% | – | – | – | – | –
3 | Cn1cc(-c2ccccc2)c(-n2cccc2)n1 [LX-907] | 98.8% | 62.8% | 9.7% | – | – | 95.1% | – | – | 90.1% | 78.5% | 53.7% | 5.9% | – | 297% | 264% | – | – | – | – | –
4 | CO[C@@H]1[C@H](N(C)C(=O)c2ccccc2)C[C@H]2O[C@]1(C)n1c3ccccc3c3c4c(c5c6ccccc6n2c5c31)C(=O)NC4 [LX-3307, Midostaurin, reference compound] | 108% | 32.7% | – | – | – | 96.1% | – | – | 99.8% | 51.9% | 20% | – | – | 288% | – | 295% | – | – | – | –
5 | CCn1c2ccccc2c2cc(NC(=O)COC(=O)C3CCC(=O)N3)ccc21 (stereo not drawn) [LX-902] | 97.9% | 72.8% | 23.9% | – | – | 91.6% | – | – | 94.6% | 88.2% | 62.7% | 25.8% | – | 268% | 234% | – | – | – | – | –
6 | CCNC(=O)CC[C@]12CCC(C)(C)C[C@H]1[C@H]1C(=O)C=C3[C@@]4(C)C=C(C#N)C(=O)C(C)(C)[C@@H]4CC[C@@]3(C)[C@]1(C)CC2 [LX-2402] | 45.2% | – | – | – | – | 5.1% | – | – | 99.5% | 5.4% | – | – | – | 287% | – | 286% | – | – | – | –
7 | C[C@H](CN1CCCC1)C(=O)c1ccc(C(F)(F)F)cc1 [LX-1402, Lanperisone, reference compound] | 101% | 15.6% | 2.1% | – | – | 97.6% | – | – | 97.6% | 81.1% | 29.5% | – | – | 304% | – | 248% | – | – | – | –
8 | CCN(CC)C(=S)SSC(=S)N(CC)CC [LX-1601, Disulfiram, reference compound] | 93.7% | 95.6% | 61.4% | – | – | 90% | – | – | 114% | 118% | 74.2% | 3.1% | – | 154% | 257% | – | – | – | – | –
9 | CCCC[C@H]1Cc2c([nH]c3ccccc23)[C@H](c2ccc(NC3CCC3)cc2)N1C(=O)C#C[Si](C)(C)C [LX-422] | – | – | – | – | – | – | – | – | – | – | – | – | – | – | – | – | 1.8% | 294% | 336% | 4.8%
10 | C[C@@H]1C(=O)[C@]2(C#N)O[C@@H]2[C@]2(C)C3=CC(=O)[C@@H]4[C@@H]5CC(C)(C)CC[C@]5(NC(=O)C(C)(F)F)CC[C@@]4(C)[C@]3(C)CC[C@@H]12 [LX-2319] | 52.9% | – | – | – | – | 21.9% | – | – | 96.5% | 21.3% | – | – | – | 241% | – | 310% | – | – | – | –
11 | CCC[C@H]1C(=O)C(C#N)=C[C@@]2(C)c3nc(-c4ccnc5ccccc45)nc(-c4ccccc4F)c3CC[C@H]12 [LX-2502] | 49.6% | – | – | – | – | 13.4% | – | – | 97.2% | 5.9% | – | – | – | 258% | – | 297% | – | – | – | –
12 | CN(C)C(=S)N/N=C1\CCCc2cccnc21 [LX-802, 2-(6,7-Dihydroquinolin-8(5H)-ylidene)-N^4,N^4-dimethylhydrazine-1-carbothioamide] | 42.7% | – | – | – | – | 5.7% | – | – | 62.7% | – | – | – | – | 301% | – | 329% | – | – | – | –
13 | C=C(CN(C)C)C(=O)c1ccc(C)cc1C [LX-923] | 97.7% | 75.7% | 19.5% | – | – | 94.5% | – | – | 96.7% | 89.4% | 81.7% | 15.7% | – | 271% | 219% | – | – | – | – | –
14 | C#CCOc1ccc2[nH]c3c(c2c1)C[C@H](C(=O)OC)N(C(=O)CCl)[C@H]3c1ccc(C(=O)NC23CC4CC(CC(C4)C2)C3)cc1 [LX-415] | 0.4% | – | – | – | – | – | – | – | 15.6% | – | – | – | – | 295% | – | 297% | – | – | – | –
15 | C=C1C(=O)O[C@H]2C1CC/C(COC(=O)/C=C/c1c(OC)cccc1OC)=C\CCC1(C)O[C@H]21 (stereo partly drawn) [LX-601] | 6.1% | – | – | – | – | 3.3% | – | – | 13.8% | – | – | – | – | 293% | – | 318% | – | – | – | –
16 | Cc1c(O)ccc2c1OCC(c1ccc(O)cc1)C2c1ccc(O)cc1 (stereo not drawn) [LX-1605] | 83.4% | 43.7% | 11.3% | – | – | 63.8% | – | – | 91.7% | 41.8% | 6.4% | – | – | 284% | – | 338% | – | – | – | –
17 | CCCCS[C@@H]1O[C@@H]2O[C@@]3(C)CCC4[C@H](C)CCC([C@H]1C)[C@]42OO3 (stereo partly drawn) [LX-503] | 25.1% | – | – | – | – | – | – | – | 34.4% | – | – | – | – | 284% | – | 333% | – | – | – | –
18 | C[C@@H]1C(=O)C(C#N)=C[C@]2(C)C3=CC(=O)[C@@H]4[C@@H]5CC(C)(C)CC[C@]5(CO)CC[C@@]4(C)[C@]3(C)CC[C@@H]12 [LX-2317] | 48.2% | – | – | – | – | 7.8% | – | – | 93.5% | 29.7% | – | – | – | 317% | – | 282% | – | – | – | –

Reference: US20250108036A1, “COMPOSITIONS FOR REMOVING SENESCENT CELLS AND USES THEREOF” (LIFECEUTIX CO., LTD., priority 2021, published 2025)
